A short description of this experiment: Deodorant activity test. The conditions noted are these: γ-CD 1 w/w %, Compound E 0.1 w/w %. The method, then:
The predetermined samples shown in Tables 1 to 5 were tested for deodorant activity against ammonia, acetic acid, isovaleric acid, and nonenal. Now, the test, including the test conditions, will be specifically described. Test Items: The deodorant test and the test to gain SEK mark approval for textiles according to the certification standards of the Japan Textile Evaluation Technology Council (4 ml of sample liquid was applied to a cotton fabric and dried for a period of from 30 minutes to 1 hour. Then, the concentration of the gas volatilized from the cotton fabric was measured by a detection tube and gas chromatography) Odor tested: Ammonia, acetic acid, isovaleric acid, and nonenal Samples used: Sample 1): Compound E 0.1%+γ-CD 1%+purified water 98.9% • Sample 2): Compound E 0.1%+γ-CD 5%+purified water 94.9% Initial gas concentration: Ammonia: 100 ppm (100 cm^2) • Acetic acid: 50 ppm (100 cm^2) • Isovaleric acid: about 38 ppm (48 cm^2) • Nonenal: about 14 ppm (48 cm^2)

`CCCCCCCCCCCCCCCCCC[N+](C)(C)CCC[Si](OCC)(OCC)OCC.[Cl-]` [Compound E, Octadecyl dimethyl(3-triethoxysilylpropyl)ammonium chloride]: the “Deodorant Effect: Deodorant Activity Test (by Detection Tube and Gas Chromatography)” value is “Confirmed”.

These data come from patent US20150296790A1, “SILICON-CONTAINING COMPOUND AQUEOUS SOLUTION AND ANTIBACTERIAL/ANTIVIRAL AGENT INCLUDING SAID SOLUTION” (JEX CO., LTD., priority 2012, published 2015).
